Laboratory results: publication PMC8414802, “Hair Cell Generation in Cochlear Culture Models Mediated by Novel γ-Secretase Inhibitors” (Frontiers in Cell and Developmental Biology, 2021)
Like-named read-outs stand apart in the source and are kept apart here.

Columns and labels:
[1] = test system: Atoh1, Pou4f3, Myo7a expression in otic spheres; assay: Otic sphere assay, hair cell gene expression; format: cell-based, mouse
Protocol: The generation of otic spheres followed previously described protocols ([Oshima et al., 2009]) with modifications during differentiation phase to test GSIs. Briefly, OCs were dissociated and single cells were deposited in ultralow-cluster plates (Corning) and expanded in “full otic medium” consisting of DMEM/F12, supplemented with N2, B27 (Thermo Fisher), EGF (20 ng/ml; Chemicon), bFGF (10 ng/ml; Chemicon), IGF-1 (50 ng/ml; Chemicon), and heparan sulfate (50 ng/ml; Sigma-Aldrich). After culturing for 3–4 days at 37°C, spheres were collected, plated in cell culture-treated 96 well-plate and cultured in DMEM/F12, supplemented with N2, B27 with/without GSIs for 7 days after which they were lysed for RNA extraction.
(§1) Cells or tissue were lysed using RLT Lysis Buffer (Qiagen) and high purity RNA was prepared on the MagNA Pure instrument using MagNA Pure 96 Cellular RNA LV Kit (Roche). Reagents from Thermo Fisher were used for cDNA synthesis by reverse transcription using random hexamers. Resulting cDNA was RNAse H treated and amplified by TaqMan GEX mastermix and PCR primers and probes for human ATOH1 (Hs00944192_s1) and TBP (Hs00427620_m1), mouse Tbp (Mm00446971_m1), Atoh1 (Mm00476035_s1), Hes5 (Mm00439311_g1), Pouf4s (Mm04213795_s1), and Myo7a (Mm01274015_m1) on the Applied Biosystems QuantStudio 7 Flex Real-Time PCR System. Normalized to Tbp, relative gene expression fold-change was quantified and compared between experimental and control conditions by ΔΔCt calculation.
CPD3 and CPD8 were further compared for their potency to induce hair cell gene expression in otic sphere assays ([Oshima et al., 2009]). Cells were first expanded in presence of growth factors, and in a second step differentiated by growth factor removal and GSI treatment. […] This indicated a modest advantage of CPD3 in eliciting expression of the early hair cell marker Atoh1, but similar potency on expression of some later markers of HC differentiation, Pou4f3 and Myo7a (Figure 2A). From the results of two screening assays, CPD3 was selected for additional characterization studies based on its lower IC50 to induce Atoh1/ATOH1 expression in the otic spheres and LS174T cells, respectively.

[2] = test system: Notch-dependent expression of ATOH1 in LS174T cells; assay: ATOH1 expression induction in LS174T cell line by GSIs (RT-PCR); format: cell-based, human; settings: GSI treatment 72 h, fold-change vs 0.05% DMSO, read-out: IC50 for ATOH1 expression upregulation
Protocol: The human colon cancer cell line LS174T (CL-188; ATCC) was cultured without antibiotics in 1% FBS/Eagle’s Minimum Essential Medium (MEM; Thermo Fisher) ([Asakura et al., 2018]). […]
as §1
Statistical analysis was performed with GraphPad Prism software (Prism9; GraphPad Software Inc., San Diego, CA, United States). For explant cultures, when the number of explants/replicates was not sufficient to test for Gaussian distribution normal distribution of the data was assumed based on previous experiments ([Perny et al., 2017]; [Erni et al., 2019]). Alternatively, the distribution of the datasets was tested by D’Agostino and Pearson normality test. Unpaired t-tests were used to compare parametric data sets of two groups. Welch’s correction was applied if variances were not equal. For non-parametric data, the Mann–Whitney test was adopted. One-way ANOVA was used to determine the difference in means among multiple groups and multiple comparison correction was tested. Graphs indicate the single data point, the mean values ± standard deviation. IC50s were calculated by non-linear regression of data normalized by percent change from controls to compare multiple experiments. Differences in IC50s from Best fit data were compared by Least Squares (F-test; Extra sum of squares; alpha = 0.05).
To measure the relative potency between different GSIs, a pharmacological assay was initially used to identify the dose ranges effective to induce ATOH1 expression. The cell line LS174T, a human colorectal adenocarcinoma, was used to evaluate Notch-dependent expression of ATOH1 ([Kazanjian et al., 2010]). Two compounds from Eli Lilly, designated LY3056480 (CPD3) and LY3056359 (CPD8) (Figures 1A,B) were compared with the commercially available GSIs LY411575 and DAPT. […] The intermediate potency of CPD3 and 8 was likely to be adequate to achieve levels above the IC50 after dilution into perilymph in the inner ear.

[3] = Inner ear pharmacokinetics after transtympanic administration (perilymph, plasma; LC-MS/MS); format: in vivo, guinea pig; settings: 10% POX, sampled at 0.5, 1 and 6 h post-dosing
Protocol: Female albino Hartley guinea pigs, 250 g, from Charles River (France), housed in macrolon cages (2/cage; Innocage Rat Static-Innovive, Paris) with filter air, were maintained at 22 ± 2°C on a 12-h light cycle with standard A04C (UAR) diet and water “ad libitum.” Lgr5-GFP mice containing an EGFP-IRES-CreERT2 knock-in allele at the Lgr5 locus were obtained from the Jackson Labs (Stock 008875, C57BL/6J/RccHsd background). Atoh1-nGFP transgenic mice (C57Bl/6J background) were from Jane Johnson ([Lumpkin et al., 2003]). Wistar rats were obtained from Charles River.
γ-secretase inhibitors pharmacokinetic studies tested CPD3, CPD8 (Eli Lilly) or LY411575 (Stemcell Technologies) each formulated at 3.4 mg/ml in the following vehicles, 10% Poloxamer 338 (Sigma), 20% Poloxamer 338, 70% PEG400 (Sigma) or 1% hyaluronic acid (HA-700; Lifecore, Chaska, MN, United States) all prepared with PBS (pH 6.2). A single 70 μl injection of the formulated compound (total dose, 870 μg/kg) was delivered to the middle ear space of isoflurane-anesthetized guinea pigs by transtympanic administration. Perilymph from treated animals (perilymph volumes, >2 μl) was collected at time points up to 48 h post-administration (CILcare, Montpellier, France). Briefly, concentrations of each compound in perilymph and plasma, as well as controls prepared in artificial perilymph, were measured by LC-MS/MS on an AB Sciex, API 4000 mass spectrometer using an Onyx C18 5 μm 50^∗2.0 mm separation column (Oroxcell, Romainville, France).
To verify this, in vivo compound concentrations were measured in perilymph of guinea pigs after intratympanic delivery of GSIs into the middle ear. Initially, four vehicle formulations, with different physical properties, were tested, poloxamer 338 (POX; at 10% or 20%), hyaluronic acid (HA), or polyethylene glycol 400 (PEG). For this comparison only one GSI was prepared in each formulation (CPD3, 3.4 mg/ml) and a single dose was injected into the middle ear. Perilymph and plasma were sampled for 48 h (Figure 1D). […] Next, using only 10% POX as vehicle, inner ear adsorption was compared between CPD3, CPD8, and LY411575 by transtympanic injections (Figure 1D, inset). […] Each compound achieved levels several folds above their respective IC50s. The mean maximal perilymph concentration of CPD3 at 0.5 h post-dosing was 85,489 ng/ml (183 μM), then declined at 1 h to 12,928 ng/ml (27.7 μM), and at 6 h to 12,652 ng/ml (27.1 μM). GSIs in plasma samples were not detected (data not shown).

[4] = test system: hair cell genes Atoh1, Pou4f3, Myo7a in OC explants; assay: Hair cell gene expression in organ of Corti explants (RT-PCR); format: cell-based, mouse; settings: 5 μM, 4 days, vs DMSO
Protocol: OC explants were isolated from postnatal day 2 (P2) Wistar rats, P0-P2 mice (Lgr5-GFP or Atoh1-nGFP mice). Dissection of the cochlea under a stereomicroscope (Nikon SMZ800, Japan) allowed OC separation from stria vascularis and modiolus, and the sensory epithelium was plated with hair cells facing up on Cell-Tak (Corning, United States)-coated transwell-clear inserts (6-well format, 0.4 μm pore, Corning, United States). Dissection medium was exchanged for 1.5 ml full otic medium supplemented with 10% FBS (Invitrogen) and 0.01% Ampicillin (Sigma), added under the insert membrane, maintaining the OC under a thin film of medium during culture at 37°C. 5-ethyl-2′-deoxyuridine (EdU, 5 μM, Life Technologies) was added directly in the medium when indicated.
Concentrations of small molecule GSIs {LY411575, CPD3, CPD8, DAPT (N-[N-(3,5-Difluorophenacetyl)-L-alanyl]-S-phenylglycine t-butyl ester; Sigma)} were prepared in DMSO and are indicated in Figure Legends and Results. DMSO included as Control. Treatment groups were assigned randomly.
as §1
FIGURE 2 GSI-mediated induction of hair cell gene expression and de novo generation of hair cells in the neonatal cochlear sensory epithelium. (A) Gene expression changes of Atoh1, Pou4f3, and Myo7a in response to Notch pathway inhibition by CPD3 (solid lines, triangles) and CPD8 (dashed lines, open square) in otic spheres. Gene expression is reported as fold-change relative to carrier control-treated (DMSO, 0.05%). (n = 9–12). […] (B) Gene expression analysis for the hair cell genes Atoh-1, Myo7a, and Pou4f3. DMSO control n = 13, CPD3 n = 12, LY411575 n = 9, DAPT n = 6 from 2–4 independent experiments. OC explants were cultured for 4 days with/without GSI prior to lysis and analysis. One-way ANOVA with Dunnett’s multiple comparison test, each condition compared to DMSO control. (*p < 0.05, **p < 0.005, ***p < 0.001). (C) Cell counts of Atoh1 positive HCs (OHC left, IHC right) in the mouse cochlear sensory epithelium in the mid-apex region after 7 days in culture with different γ-secretase inhibitors. One-way ANOVA Dunnett’s multiple comparison test, each condition compared to DMSO control. (*p < 0.05; n = 3–5 independent experiments). (D) Quantification of Pou4f3 positive HCs (OHC left, IHC right) in the cochlear sensory epithelium from P2 rats in the apical domain after 8 days in culture with different γ-secretase inhibitors. One-way ANOVA with Dunnett’s multiple comparison test, each condition compared to DMSO control (*p < 0.05, n = 3). Representative immunohistological images of the apical domain after 8 days incubation (inset). scale bar = 20 μm. (E) Quantification of Pou4f3 positive OHCs in the apex, middle and basal domain of organ of Corti explants from rats after 4 days of CPD3 treatment compared to DMSO (*p < 0.05, unpaired t-test) n = 4–6 explants from 2 independent experiments.

Compound | IC50 ([1]; Mus musculus, 168 h, 7 days differentiation with GSI, read-out: IC50 for Atoh1 upregulation) [µM] | Induction of Atoh1, Pou4f3 and Myo7a expression ([1]; dose-responsive, p < 0.05) | IC50 ([2]; Homo sapiens) [µM] | Perilymph concentrations quantifiable [3] | Atoh1 expression [4] [fold] | Myo7a expression [4] [fold] | Pou4f3 expression [4] [fold] | IC50 [2] [µM]
C[C@H](NC(=O)CCC(F)(F)F)C(=O)N[C@@H]1C(=O)C=C2N(CCC2(C)C)c2ncccc21 [CPD8] | 0.303 | significantly induced | 0.062 | quantifiable at all time points | – | – | – | –
C[C@H](NC(=O)Cc1cc(F)cc(F)c1)C(=O)N[C@H](C(=O)OC(C)(C)C)c1ccccc1 [DAPT, N-[N-(3,5-Difluorophenacetyl)-L-alanyl]-S-phenylglycine t-butyl ester] | – | – | – | – | 2.36 ± 0.39 | 1.59 ± 0.21 | 2.14 ± 0.36 | 1.4
